This test concerns pathogenic bacteria. Briefly: MIC by microdilution broth method (NCCLS M7-A4), in vitro antibacterial activity. Format: cell-based. In a few lines: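 Broth microdilution per NCCLS M7-A4: two-fold serial dilutions in cation-adjusted Mueller-Hinton broth, inoculum about 5×10^4 CFU/well. Trays incubated 16–20 h at 35 °C. MIC read by comparing growth against no-compound growth controls.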
(In general: Dilution methods test growth across graded concentrations, often in twofold steps.)

Setting [1] is: Staphylococcus aureus, Organism A: Staphylococcus aureus OC4172.
[2] abbreviates: Streptococcus pneumoniae, ATCC49619, Organism E: Streptococcus pneumoniae ATCC 49619.
The mark [3] stands for this setting: Streptococcus pneumoniae, Organism B: fluoroquinolone-resistant clinical isolate of Streptococcus pneumoniae (QRDR amino acid substitutions).
Where [4] appears, read: Streptococcus pneumoniae, Organism C: fluoroquinolone-resistant clinical isolate of Streptococcus pneumoniae (QRDR amino acid substitutions).
Where [5] appears, read: Streptococcus pneumoniae, Organism D: fluoroquinolone-resistant clinical isolate of Streptococcus pneumoniae (QRDR amino acid substitutions).
The mark [6] stands for this setting: Staphylococcus aureus, Organism A: Staphylococcus aureus OC4172, read-out: MIC.
Where [7] appears, read: Streptococcus pneumoniae, ATCC49619, Organism E: Streptococcus pneumoniae ATCC 49619, read-out: MIC.

In brackets after ≈: the same amount, converted by molar mass. Structures can show the parent of a compound that is named as a salt. Where two headings read alike, the source gives them in different places. A value given as a limit tells only on which side of the number the result lay.

Take `CN(C)CC(Cl)=C1CCN(c2cc3c(cc2F)c(=O)c(C(=O)O)cn3C2CC2)CC1` [Compound 298, 7-[4-(1-Chloro-2-dimethylamino-ethylidene)-piperidin-1-yl]-1-cyclopropyl-6-fluoro-4-oxo-1,4-dihydro-quinoline-3-carboxylic Acid Trifluoroacetic Acid Salt]: the minimal inhibitory concentration (MIC) came out at 0.25 µg/mL under setting [1]; 1 µg/mL under setting [2]; 16 µg/mL under setting [3]; 16 µg/mL under setting [4]; 8 µg/mL under setting [5].

For `CN(C)CC(F)=C1CCN(c2cc3c(cc2F)c(=O)c(C(=O)O)cn3C2CC2)CC1` [Compound 299, 1-Cyclopropyl-7-[4-(2-dimethylamino-1-fluoro-ethylidene)-piperidin-1-yl]-6-fluoro-4-oxo-1,4-dihydro-quinoline-3-carboxylic acid], the minimum inhibitory concentration (MIC) under setting [6] was 0.5 µg/mL (≈ 1.2 µM); the minimal inhibitory concentration (MIC) under setting [7] came out at 1 µg/mL (≈ 2.4 µM); the MIC under setting [3] was found to be 16 µg/mL (≈ 38.3 µM); the MIC under setting [4] is > 16 µg/mL; the MIC under setting [5] stood at 2 µg/mL (≈ 4.79 µM).

Consider `O=C(O)c1cn(C2CC2)c2cc(N3CCC(=C(Cl)CN4CCCCC4)CC3)c(F)cc2c1=O` [Compound 300, 7-[4-(1-Chloro-2-piperidin-1-yl-ethylidene)-piperidin-1-yl]-1-cyclopropyl-6-fluoro-4-oxo-1,4-dihydro-quinoline-3-carboxylic acid], for which the minimal inhibitory concentration (MIC) is 0.5 µg/mL (≈ 1.05 µM) under setting [6]; 2 µg/mL (≈ 4.22 µM) under setting [7]; > 16 µg/mL under setting [3]; > 16 µg/mL under setting [4]; 2 µg/mL (≈ 4.22 µM) under setting [5].

As for `C/C(CN)=C1\CCCN(c2cc3c(cc2F)c(=O)c(C(=O)O)cn3C2CC2)C1` [Compound 301, (Z)-7-[3-(2-Amino-1-methyl-ethylidene)-piperidin-1-yl]-1-cyclopropyl-6-fluoro-4-oxo-1,4-dihydro-quinoline-3-carboxylic acid], the MIC came out at 0.12 µg/mL (≈ 0.311 µM) under setting [6]; 0.25 µg/mL (≈ 0.649 µM) under setting [7]; 8 µg/mL (≈ 20.8 µM) under setting [3]; 8 µg/mL (≈ 20.8 µM) under setting [4]; 8 µg/mL (≈ 20.8 µM) under setting [5].

Regarding `COc1c(N2CCC/C(=C(\C)CN)C2)c(F)cc2c(=O)c(C(=O)O)cn(C3CC3)c12` [Compound 302, (Z)-7-[3-(2-Amino-1-methyl-ethylidene)-piperidin-1-yl]-1-cyclopropyl-6-fluoro-8-methoxy-4-oxo-1,4-dihydro-quinoline-3-carboxylic acid], the MIC was ≤ 0.03 µg/mL under setting [6]; ≤ 0.12 µg/mL under setting [7]; 1 µg/mL (≈ 2.41 µM) under setting [3]; ≤ 0.5 µg/mL under setting [4]; 1 µg/mL (≈ 2.41 µM) under setting [5].

`COc1c(N2CCC/C(=C(\F)CN)C2)c(F)cc2c(=O)c(C(=O)O)cn(C3CC3)c12` [Compound 303, (E)-7-[3-(2-Amino-1-fluoro-ethylidene)-piperidin-1-yl]-1-cyclopropyl-6-fluoro-8-methoxy-4-oxo-1,4-dihydro-quinoline-3-carboxylic Acid Trifluoroacetic Acid Salt]: the MIC runs as follows: under setting [6], ≤ 0.015 µg/mL; under setting [7], 0.03 µg/mL; under setting [3], 0.25 µg/mL; under setting [4], 0.12 µg/mL; under setting [5], 0.25 µg/mL.

With `COc1c(N2CC(=C(Cl)CO)C2)c(F)cc2c(=O)c(C(=O)O)cn(C3CC3)c12` [Compound 356, 7-[3-(1-Chloro-2-hydroxy-ethylidene)-azetidin-1-yl]-1-cyclopropyl-6-fluoro-8-methoxy-4-oxo-1,4-dihydro-quinoline-3-carboxylic Acid], the MIC was 0.06 µg/mL (≈ 0.147 µM) under setting [6]; 0.5 µg/mL (≈ 1.22 µM) under setting [7]; ≤ 4 µg/mL under setting [3]; > 16 µg/mL under setting [4]; 8 µg/mL (≈ 19.6 µM) under setting [5].

Turning to `O=C(O)c1cn(C2CC2)c2nc(N3CC(=C(Cl)CO)C3)c(F)cc2c1=O` [Compound 357, 7-[3-(1-Chloro-2-hydroxy-ethylidene)-azetidin-1-yl]-1-cyclopropyl-6-fluoro-4-oxo-1,4-dihydro-[1,8]naphthyridine-3-carboxylic Acid], the minimum inhibitory concentration (MIC) by setting is: under setting [6], 0.25 µg/mL (≈ 0.658 µM); under setting [7], 1 µg/mL (≈ 2.63 µM); under setting [3], 8 µg/mL (≈ 21.1 µM); under setting [4], 16 µg/mL (≈ 42.1 µM); under setting [5], 4 µg/mL (≈ 10.5 µM).

`NC/C(F)=C1/CCCN(c2c(F)cc3c(=O)c(C(=O)O)cn(-c4nc(N)c(F)cc4F)c3c2Cl)C1` [Compound 358, (E)-1-(6-Amino-3,5-difluoro-pyridin-2-yl)-7-[3-(2-amino-1-fluoro-ethylidene)-piperidin-1-yl]-8-chloro-6-fluoro-4-oxo-1,4-dihydro-quinoline-3-carboxylic Acid Trifluoroacetate]: the MIC reads like this: under setting [1], 0.12 µg/mL; under setting [2], 0.5 µg/mL; under setting [3], 16 µg/mL; under setting [4], 8 µg/mL; under setting [5], 16 µg/mL.

On to `Nc1nc(-n2cc(C(=O)O)c(=O)c3cc(F)c(N4CCC/C(=C(/F)CO)C4)c(Cl)c32)c(F)cc1F` [Compound 359, (Z)-1-(6-Amino-3,5-difluoro-pyridin-2-yl)-8-chloro-6-fluoro-7-[3-(1-fluoro-2-hydroxy-ethylidene)-piperidin-1-yl]-4-oxo-1,4-dihydroquinoline-3-carboxylic Acid Trifluoroacetate], for which the minimal inhibitory concentration (MIC) is, setting by setting: under setting [1], 0.12 µg/mL; under setting [2], 1 µg/mL; under setting [4], 8 µg/mL; under setting [5], 16 µg/mL.

As to `CNCC(Cl)=C1CN(c2c(F)cc3c(=O)c(C(=O)O)cn(-c4nc(N)c(F)cc4F)c3c2Cl)C1` [Compound 360, 1-(6-Amino-3,5-difluoro-pyridin-2-yl)-8-chloro-7-[3-(1-chloro-2-methylamino-ethylidene)-azetidin-1-yl]-6-fluoro-4-oxo-1,4-dihydro-quinoline-3-carboxylic Acid], the MIC reads like this: under setting [6], 0.06 µg/mL (≈ 0.117 µM); under setting [7], 0.5 µg/mL (≈ 0.972 µM); under setting [3], 16 µg/mL (≈ 31.1 µM); under setting [4], 8 µg/mL (≈ 15.6 µM); under setting [5], 8 µg/mL (≈ 15.6 µM).

For the compound `Nc1nc(-n2cc(C(=O)O)c(=O)c3cc(F)c(N4CC(=C(Cl)CO)C4)c(Cl)c32)c(F)cc1F` [Compound 361, 1-(6-Amino-3,5-difluoro-pyridin-2-yl)-8-chloro-7-[3-(1-chloro-2-hydroxy-ethylidene)-azetidin-1-yl]-6-fluoro-4-oxo-1,4-dihydro-quinoline-3-carboxylic acid], the minimal inhibitory concentration (MIC) by setting is: under setting [6], ≤ 0.015 µg/mL; under setting [7], ≤ 0.015 µg/mL; under setting [3], 0.12 µg/mL (≈ 0.239 µM); under setting [4], 0.12 µg/mL (≈ 0.239 µM); under setting [5], 0.06 µg/mL (≈ 0.12 µM).

Consider `C[C@H]1COc2c(N3CC(=C(Cl)CO)C3)c(F)cc3c(=O)c(C(=O)O)cn1c23` [Compound 362, (S)-9-[3-(1-Chloro-2-hydroxy-ethylidene)-azetidin-1-yl]-8-fluoro-3-methyl-6-oxo-2,3-dihydro-6H-1-oxa-3a-aza-phenalene-5-carboxylic Acid], for which the MIC by setting is: under setting [6], 0.03 µg/mL (≈ 0.076 µM); under setting [7], 0.5 µg/mL (≈ 1.27 µM); under setting [3], 8 µg/mL (≈ 20.3 µM); under setting [4], > 16 µg/mL; under setting [5], 8 µg/mL (≈ 20.3 µM).

Take `COc1c(N2CC(=C(Cl)CO)C2)c(F)cc2c(=O)c(C(=O)O)cn([C@@H]3C[C@@H]3F)c12` [Compound 363, 7-[3-(1-Chloro-2-hydroxy-ethylidene)-azetidin-1-yl]-6-fluoro-(1R,2S)-1-(2-fluoro-cyclopropyl)-8-methoxy-4-oxo-1,4-dihydro-quinoline-3-carboxylic Acid]: the minimum inhibitory concentration (MIC) runs as follows: under setting [6], 0.03 µg/mL (≈ 0.0703 µM); under setting [7], 0.5 µg/mL (≈ 1.17 µM); under setting [3], 4 µg/mL (≈ 9.37 µM); under setting [4], > 16 µg/mL; under setting [5], 16 µg/mL (≈ 37.5 µM).

Consider `Cc1c(F)c(N2CC(=C(Cl)CO)C2)cc2c1c(=O)c(C(=O)O)cn2C1CC1` [Compound 364, 7-[3-(1-Chloro-2-hydroxy-ethylidene)-azetidin-1-yl]-1-cyclopropyl-6-fluoro-5-methyl-4-oxo-1,4-dihydro-quinoline-3-carboxylic Acid], for which the MIC under setting [6] came out at 0.06 µg/mL (≈ 0.153 µM); the minimal inhibitory concentration (MIC) under setting [7] is 2 µg/mL (≈ 5.09 µM); the minimum inhibitory concentration (MIC) under setting [3] was > 16 µg/mL; the MIC under setting [4] is > 16 µg/mL; the MIC under setting [5] is > 16 µg/mL.

In the case of `C[C@H]1COc2c(N3CC(=CCN)C3)c(F)cc3c(=O)c(C(=O)O)cn1c23` [Compound 365, (S)-9-[3-(2-Amino-ethylidene)-azetidin-1-yl]-8-fluoro-3-methyl-6-oxo-2,3-dihydro-6H-1-oxa-3a-aza-phenalene-5-carboxylic Acid], the MIC reads like this: under setting [6], 0.12 µg/mL (≈ 0.334 µM); under setting [7], 2 µg/mL (≈ 5.57 µM); under setting [4], > 16 µg/mL; under setting [5], > 16 µg/mL.

Turning to `CC(CN)=C1CN(c2c(F)cc3c(=O)c(C(=O)O)cn4c3c2OC[C@@H]4C)C1` [Compound 366, (S)-9-[3-(2-Amino-1-methyl-ethylidene)-azetidin-1-yl]-8-fluoro-3-methyl-6-oxo-2,3-dihydro-6H-1-oxa-3a-aza-phenalene-5-carboxylic Acid], the MIC runs as follows: under setting [6], 4 µg/mL (≈ 10.7 µM); under setting [7], 4 µg/mL (≈ 10.7 µM); under setting [4], > 16 µg/mL; under setting [5], 8 µg/mL (≈ 21.4 µM).

For the compound `CC(CN)=C1CN(c2cc3c(c(C)c2F)c(=O)c(C(=O)O)cn3C2CC2)C1` [Compound 367, 7-[3-(2-Amino-1-methyl-ethylidene)-azetidin-1-yl]-1-cyclopropyl-6-fluoro-5-methyl-4-oxo-1,4-dihydro-quinoline-3-carboxylic Acid], the MIC is ≤ 0.015 µg/mL under setting [6]; 0.12 µg/mL (≈ 0.323 µM) under setting [7]; 0.25 µg/mL (≈ 0.673 µM) under setting [3]; 1 µg/mL (≈ 2.69 µM) under setting [4]; 1 µg/mL (≈ 2.69 µM) under setting [5].

`COc1c(N2CC(=C(C)CN)C2)c(F)cc2c(=O)c(C(=O)O)cn([C@@H]3C[C@@H]3F)c12` [Compound 368, 7-[3-(2-Amino-1-methyl-ethylidene)-azetidin-1-yl]-6-fluoro-(1R,2S)-1-(2-fluoro-cyclopropyl)-8-methoxy-4-oxo-1,4-dihydro-quinoline-3-carboxylic Acid]: the MIC runs as follows: under setting [6], 0.25 µg/mL (≈ 0.617 µM); under setting [7], 1 µg/mL (≈ 2.47 µM); under setting [3], 8 µg/mL (≈ 19.7 µM); under setting [4], > 16 µg/mL; under setting [5], 8 µg/mL (≈ 19.7 µM).

One may read the MIC as the lowest concentration found to suppress growth.

For the origin of these results see US20090156577A1, “7-AMINO ALKYLIDENYL-HETEROCYCLIC QUINOLONES AND NAPHTHYRIDONES” (priority 2004, published 2009).
